{
  "source": "patent US20210254272A1",
  "about": "“TEXTILES HAVING ANTIMICROBIAL PROPERTIES” (Livinguard AG, priority 2015, published 2021)",
  "system": "E. coli (ATCC 25922)",
  "assay": "AATCC Test Method 100-2012 antibacterial activity of the treated textile, after 25 washes and 12 abrasion cycles, contact time 60 minutes",
  "format": "cell-based",
  "experimental": "The antibacterial activity of the textile was tested in accordance with AATCC Test Method 100-2012. Prior to the test, the fabric was cut into coupons of 2×4 inches and washed separately 25 times, and exposed to 12 abrasion cycles, as per US EPA protocol 90072PA4 (described further below). The tests were made against E. coli (ATCC 25922). Contact time was 60 minutes, after inoculating with 10^8 CFU per coupon.",
  "data": [
    {"substance": "polyglucosamine [chitosan]", "values": [
      {"measurement": "Log reduction of antimicrobial performance of each active ingredient", "setting": "exhaust 80 ° C., solution dosage 1% o.w.f, process time 90 min", "value": 2.72, "unit": "Log"},
      {"measurement": "Log reduction of antimicrobial performance", "setting": "pure cotton fabric, exhaust 80° C., 60 min, dosage 0.1% o.w.f", "value": 0.63, "unit": "Log"},
      {"measurement": "Log reduction of antimicrobial performance", "setting": "pure cotton fabric, exhaust 80° C., 60 min, dosage 0.2% o.w.f", "value": 1.37, "unit": "Log"},
      {"measurement": "Log reduction of antimicrobial performance", "setting": "pure cotton fabric, exhaust 80° C., 60 min, dosage 0.5% o.w.f", "value": 1.91, "unit": "Log"},
      {"measurement": "Log reduction of antimicrobial performance", "setting": "pure cotton fabric, exhaust 80° C., 60 min, dosage 0.8% o.w.f", "value": 2.21, "unit": "Log"},
      {"measurement": "Log reduction of antimicrobial performance", "setting": "pure cotton fabric, exhaust 80° C., 60 min, dosage 1.0% o.w.f", "value": 2.71, "unit": "Log"},
      {"measurement": "Log reduction of antimicrobial performance", "setting": "pure cotton, exhaust 80° C., 1% o.w.f, 60 min, curing 180° C., curing dwell time 0.5 min", "value": 0.4, "unit": "Log"},
      {"measurement": "Log reduction of antimicrobial performance", "setting": "pure cotton, exhaust 80° C., 1% o.w.f, 60 min, curing 180° C., curing dwell time 1.0 min", "value": 0.8, "unit": "Log"},
      {"measurement": "Log reduction of antimicrobial performance", "setting": "pure cotton, exhaust 80° C., 1% o.w.f, 60 min, curing 180° C., curing dwell time 1.5 min", "value": 1.6, "unit": "Log"},
      {"measurement": "Log reduction of antimicrobial performance", "setting": "pure cotton, exhaust 80° C., 1% o.w.f, 60 min, curing 180° C., curing dwell time 2.0 min", "value": 2.7, "unit": "Log"},
      {"measurement": "Log reduction of antimicrobial performance", "setting": "pure cotton, exhaust 80° C., 1% o.w.f, 60 min, curing 180° C., curing dwell time 2.5 min", "value": 2.3, "unit": "Log"},
      {"measurement": "Log reduction of antimicrobial performance", "setting": "pure cotton, exhaust 80° C., 1% o.w.f, 60 min, curing 180° C., curing dwell time 3.0 min", "value": 1.4, "unit": "Log"},
      {"measurement": "Log reduction of antimicrobial performance", "setting": "solution dosage 0.10% o.w.f, exhaust temperature 40° C., process time 60 min", "value": 0, "unit": "Log"},
      {"measurement": "Log reduction of antimicrobial performance", "setting": "solution dosage 0.10% o.w.f, exhaust temperature 60° C., process time 60 min", "value": 0, "unit": "Log"},
      {"measurement": "Log reduction of antimicrobial performance", "setting": "solution dosage 0.10% o.w.f, exhaust temperature 65° C., process time 60 min", "value": 0, "unit": "Log"},
      {"measurement": "Log reduction of antimicrobial performance", "setting": "solution dosage 0.10% o.w.f, exhaust temperature 70° C., process time 60 min", "value": 0, "unit": "Log"},
      {"measurement": "Log reduction of antimicrobial performance", "setting": "solution dosage 0.10% o.w.f, exhaust temperature 75° C., process time 60 min", "value": 0.23, "unit": "Log"},
      {"measurement": "Log reduction of antimicrobial performance", "setting": "solution dosage 0.10% o.w.f, exhaust temperature 80° C., process time 60 min", "value": 0.57, "unit": "Log"},
      {"measurement": "Log reduction of antimicrobial performance", "setting": "solution dosage 0.10% o.w.f, exhaust temperature 85° C., process time 60 min", "value": 0.67, "unit": "Log"},
      {"measurement": "Log reduction of antimicrobial performance", "setting": "solution dosage 0.10% o.w.f, exhaust temperature 90° C., process time 60 min", "value": 0.67, "unit": "Log"},
      {"measurement": "Log reduction of antimicrobial performance", "setting": "solution dosage 0.10% o.w.f, exhaust temperature 95° C., process time 60 min", "value": 0.67, "unit": "Log"},
      {"measurement": "Log reduction of antimicrobial performance", "setting": "solution dosage 0.20% o.w.f, exhaust temperature 40° C., process time 60 min", "value": 0, "unit": "Log"},
      {"measurement": "Log reduction of antimicrobial performance", "setting": "solution dosage 0.20% o.w.f, exhaust temperature 60° C., process time 60 min", "value": 0, "unit": "Log"},
      {"measurement": "Log reduction of antimicrobial performance", "setting": "solution dosage 0.20% o.w.f, exhaust temperature 65° C., process time 60 min", "value": 0, "unit": "Log"},
      {"measurement": "Log reduction of antimicrobial performance", "setting": "solution dosage 0.20% o.w.f, exhaust temperature 70° C., process time 60 min", "value": 0, "unit": "Log"},
      {"measurement": "Log reduction of antimicrobial performance", "setting": "solution dosage 0.20% o.w.f, exhaust temperature 75° C., process time 60 min", "value": 0.67, "unit": "Log"},
      {"measurement": "Log reduction of antimicrobial performance", "setting": "solution dosage 0.20% o.w.f, exhaust temperature 80° C., process time 60 min", "value": 1.34, "unit": "Log"},
      {"measurement": "Log reduction of antimicrobial performance", "setting": "solution dosage 0.20% o.w.f, exhaust temperature 85° C., process time 60 min", "value": 1.43, "unit": "Log"},
      {"measurement": "Log reduction of antimicrobial performance", "setting": "solution dosage 0.20% o.w.f, exhaust temperature 90° C., process time 60 min", "value": 1.45, "unit": "Log"},
      {"measurement": "Log reduction of antimicrobial performance", "setting": "solution dosage 0.20% o.w.f, exhaust temperature 95° C., process time 60 min", "value": 1.45, "unit": "Log"},
      {"measurement": "Log reduction of antimicrobial performance", "setting": "solution dosage 0.50% o.w.f, exhaust temperature 40° C., process time 60 min", "value": 0, "unit": "Log"},
      {"measurement": "Log reduction of antimicrobial performance", "setting": "solution dosage 0.50% o.w.f, exhaust temperature 60° C., process time 60 min", "value": 0.09, "unit": "Log"},
      {"measurement": "Log reduction of antimicrobial performance", "setting": "solution dosage 0.50% o.w.f, exhaust temperature 65° C., process time 60 min", "value": 0.09, "unit": "Log"},
      {"measurement": "Log reduction of antimicrobial performance", "setting": "solution dosage 0.50% o.w.f, exhaust temperature 70° C., process time 60 min", "value": 0.15, "unit": "Log"},
      {"measurement": "Log reduction of antimicrobial performance", "setting": "solution dosage 0.50% o.w.f, exhaust temperature 75° C., process time 60 min", "value": 1.12, "unit": "Log"},
      {"measurement": "Log reduction of antimicrobial performance", "setting": "solution dosage 0.50% o.w.f, exhaust temperature 80° C., process time 60 min", "value": 1.89, "unit": "Log"},
      {"measurement": "Log reduction of antimicrobial performance", "setting": "solution dosage 0.50% o.w.f, exhaust temperature 85° C., process time 60 min", "value": 1.93, "unit": "Log"},
      {"measurement": "Log reduction of antimicrobial performance", "setting": "solution dosage 0.50% o.w.f, exhaust temperature 90° C., process time 60 min", "value": 1.94, "unit": "Log"},
      {"measurement": "Log reduction of antimicrobial performance", "setting": "solution dosage 0.50% o.w.f, exhaust temperature 95° C., process time 60 min", "value": 1.94, "unit": "Log"},
      {"measurement": "Log reduction of antimicrobial performance", "setting": "solution dosage 0.80% o.w.f, exhaust temperature 40° C., process time 60 min", "value": 0, "unit": "Log"},
      {"measurement": "Log reduction of antimicrobial performance", "setting": "solution dosage 0.80% o.w.f, exhaust temperature 60° C., process time 60 min", "value": 0.15, "unit": "Log"},
      {"measurement": "Log reduction of antimicrobial performance", "setting": "solution dosage 0.80% o.w.f, exhaust temperature 65° C., process time 60 min", "value": 0.15, "unit": "Log"},
      {"measurement": "Log reduction of antimicrobial performance", "setting": "solution dosage 0.80% o.w.f, exhaust temperature 70° C., process time 60 min", "value": 0.21, "unit": "Log"},
      {"measurement": "Log reduction of antimicrobial performance", "setting": "solution dosage 0.80% o.w.f, exhaust temperature 75° C., process time 60 min", "value": 1.23, "unit": "Log"},
      {"measurement": "Log reduction of antimicrobial performance", "setting": "solution dosage 0.80% o.w.f, exhaust temperature 80° C., process time 60 min", "value": 2.11, "unit": "Log"},
      {"measurement": "Log reduction of antimicrobial performance", "setting": "solution dosage 0.80% o.w.f, exhaust temperature 85° C., process time 60 min", "value": 2.34, "unit": "Log"},
      {"measurement": "Log reduction of antimicrobial performance", "setting": "solution dosage 0.80% o.w.f, exhaust temperature 90° C., process time 60 min", "value": 2.37, "unit": "Log"},
      {"measurement": "Log reduction of antimicrobial performance", "setting": "solution dosage 0.80% o.w.f, exhaust temperature 95° C., process time 60 min", "value": 2.37, "unit": "Log"},
      {"measurement": "Log reduction of antimicrobial performance", "setting": "solution dosage 1.00% o.w.f, exhaust temperature 40° C., process time 60 min", "value": 0, "unit": "Log"},
      {"measurement": "Log reduction of antimicrobial performance", "setting": "solution dosage 1.00% o.w.f, exhaust temperature 60° C., process time 60 min", "value": 0.21, "unit": "Log"},
      {"measurement": "Log reduction of antimicrobial performance", "setting": "solution dosage 1.00% o.w.f, exhaust temperature 65° C., process time 60 min", "value": 0.22, "unit": "Log"},
      {"measurement": "Log reduction of antimicrobial performance", "setting": "solution dosage 1.00% o.w.f, exhaust temperature 70° C., process time 60 min", "value": 0.32, "unit": "Log"},
      {"measurement": "Log reduction of antimicrobial performance", "setting": "solution dosage 1.00% o.w.f, exhaust temperature 75° C., process time 60 min", "value": 1.28, "unit": "Log"},
      {"measurement": "Log reduction of antimicrobial performance", "setting": "solution dosage 1.00% o.w.f, exhaust temperature 80° C., process time 60 min", "value": 2.67, "unit": "Log"},
      {"measurement": "Log reduction of antimicrobial performance", "setting": "solution dosage 1.00% o.w.f, exhaust temperature 85° C., process time 60 min", "value": 2.76, "unit": "Log"},
      {"measurement": "Log reduction of antimicrobial performance", "setting": "solution dosage 1.00% o.w.f, exhaust temperature 90° C., process time 60 min", "value": 2.78, "unit": "Log"},
      {"measurement": "Log reduction of antimicrobial performance", "setting": "solution dosage 1.00% o.w.f, exhaust temperature 95° C., process time 60 min", "value": 2.78, "unit": "Log"}
    ]}
  ]
}
